Data on 2 molecules can be found in patent publication US10085449B2, “N-[1-((6-chloropyridin-3-yl)methyl)pyridin-2(1H)-ylidene]-2,2,2- trifluoroacetamide for control of agricultural/horticultural pests” (priority 2010, dated 2018).

Like-named read-outs stand apart in the source and are kept apart here.

Data set [1] concerns white-backed rice planthopper. Briefly: White-backed rice planthopper control test (foliar application). Conditions: 100 ppm foliar application, second-instar larvae on rice seedlings, 4 days after release. The class given is in vivo. How it is done:
(§1) Rice seedlings grown in pots were subjected to the foliar application of solutions of the inventive compounds at a predetermined concentration prepared to 50% acetone/water (containing 0.05% Tween 20). The treated seedlings were air dried, following which second-instar larvae were released onto the seedlings. The seedlings and larvae were then held in an incubation chamber at 25° C. (16-hour period of light, 8-hour dark period). Four days after released, the numbers of live and dead insects were counted, and the mortality was calculated from the following formula. This was a two-replication test. Mortality (%)=[number of dead insects/(number of live insects+number of dead insects)]×100

Data set [2] deals with canine heartworm microfilariae. The data set is described as follows: Effects on canine heartworm (motility of microfilariae). Details: key: At least two-thirds of the heartworms died; B: Substantially all the heartworms were affected in some way, or at least one-third died; C: No influence, or less than one-third of the heartworms died. The following applies: 3.13 ppm in RPMI1640 liquid culture medium, 37° C., observed for 48 hours. How it is done:
The activities of the compounds were evaluated based on changes in the motility of microfilariae in canine heartworm. The respective compounds were dissolved in a RPMI1640 liquid culture medium to a concentration of 3.13 ppm, following which about 20 canine heartworm microfilariae were placed in each culture fluid and cultured at 37° C.
Criteria A: At least two-thirds of the heartworms died • B: Substantially all the heartworms were affected in some way, or at least one-third died • C: No influence, or less than one-third of the heartworms died

The test system of the next data set is diamondback moth. Briefly: whole plant or invertebrate. In kind it is in vivo. Conditions: Plutella xylostella, foliar. An outline of the steps: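 Cabbage leaf discs sprayed with compound in 50% acetone/water with 0.05% Tween 20, air-dried, then infested with second-instar larvae. Held at 25 °C under 16 h light/8 h dark; mortality from dead/(live+dead) counts after 3 days, two replicates.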

A further data set has as its system common cutworm. Briefly: whole plant or invertebrate. The class given is in vivo. Conditions: for Insecticidal effects (mortality), common cutworm third-instar larvae: foliar application. In outline:
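Cabbage leaf discs (5.0 cm) sprayed with compound at a set concentration in 50% acetone/water with 0.05% Tween 20, air dried, then infested with third-instar larvae. Held at 25° C., 16 h light/8 h dark; dead and live larvae counted after 3 days, two replicates, mortality (%) = dead/(live+dead)×100.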

In another data set the test system is cotton aphid. Briefly: whole plant or invertebrate. The class given is in vivo. The following applies: Aphis gossypii, foliar. An outline of the steps:
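Cucumber leaf discs (2.0 cm) sprayed with compound in 50% acetone/water with 0.05% Tween 20, air-dried, then infested with first-instar cotton aphids. Held at 25 °C under 16 h light/8 h dark; mortality counted after 3 days, two replicates.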

The subject of data set [3] is small brown planthopper. Briefly: whole plant or invertebrate. In kind it is in vivo. The following applies: Laodelphax striatellus, foliar. How it is done: as §1, with “Three” for “Four”
Another data set deals with greenhouse whitefly. Briefly: whole plant or invertebrate. In kind it is in vivo. The following applies: Cucumis sativus, foliar, 336 h. The method, then:
Adult greenhouse whiteflies were released onto cucumber plants grown in pots, and allowed to laid eggs overnight. One day after the start of oviposition, the adults were removed, and the plants and eggs were held in an incubation chamber at 25° C. (16-hour period of light, 8-hour dark period). Three days after the end of oviposition, leaf discs 2.0 cm in diameter were cut from the cucumber plants and, after confirming oviposition thereon, the leaf discs were sprayed with solutions of the inventive compounds at a predetermined concentration prepared to 50% acetone/water (containing 0.05% Tween 20). After spraying, the treated leaf discs were held in an incubation chamber at 25° C. (16-hour period of light, 8-hour dark period). Fourteen days after spraying, the numbers of live and dead insects were counted, and the mortality was calculated from the following formula. This was a two-replication test. Mortality (%)=[(number of oviposited eggs−number of live insects)/number of oviposited eggs]×100

A further data set relates to western flower thrips. The data set is described as follows: whole plant or invertebrate. The following applies: Frankliniella occidentalis, foliar. The class given is in vivo. An outline of the steps:
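Bean leaf discs sprayed with compound in 50% acetone/water with 0.05% Tween 20, air dried, then infested with first-instar larvae. Held at 25° C under 16 h light/8 h dark; live and dead counted after 3 days to give % mortality, two replicates.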

The test system of a further data set is rice leaf bug. The data set is described as follows: whole plant or invertebrate. In kind it is in vivo. Conditions: foliar, 72 h. The method, then:
The treated seedlings were air-dried, then each was placed in a glass cylinder and two second-instar rice leaf bug larvae were released within the same glass cylinder. Following release of the insects, the tube was capped and held in an incubation chamber at 25° C. (16-hour period of light, 8-hour dark period). […] Three days after released, the numbers of live and dead insects were counted, and the mortality was calculated from the following formula. Mortality (%)=[number of dead insects/(number of live insects+number of dead insects)]×100

Data set [4] deals with small brown planthopper. Briefly: whole plant or invertebrate. The class given is in vivo. The following applies: Laodelphax striatellus, in Triticum aestivum, 96 h. In outline:
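Roots of 48-h wheat seedlings took up compound in 10% acetone/water for 72 h, then ten second-instar larvae were released per seedling and held at 25 °C (16 h light/8 h dark). Mortality counted four days after release; two replications.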

Data set [5] deals with small brown planthopper. The data set is described as follows: whole plant or invertebrate. In kind it is in vivo. Conditions: Laodelphax striatellus, 72 h. An outline of the steps:
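Rice seedlings in pots soil-drenched with compound at a set concentration in 10% acetone/water; ten second-instar larvae released per seedling 3 days later. Held at 25° C. (16 h light/8 h dark) and scored live/dead 3 days after release. Mortality (%) = dead/(live+dead)×100; two replications.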

[6] abbreviates: read-out: Insecticidal effects (mortality), diamondback moth second-instar larvae.
Setting [7] is: read-out: Insecticidal effects (mortality), cotton aphid first-instar larvae.
Where [8] appears, read: read-out: Insecticidal effects (mortality), small brown planthopper second-instar larvae.
The mark [9] stands for this setting: read-out: Insecticidal effects (mortality), western flower thrips first-instar larvae.
Setting [10] is: soil, read-out: Insecticidal effects (mortality), small brown planthopper second-instar larvae.

Turning to `CSCCN(C#N)Cc1ccc(Cl)nc1` [Compound 1, 2-chloro-5-[N-cyano-N-(2-methylthioethyl)]aminomethylpyridine], the Mortality result in data set [1] is recorded as “at least 80%”. Besides, the “Microfilaricidal effect (motility rating)” value in data set [2] was “B”.

In the case of `O=C(N=c1ccccn1Cc1ccc(F)nc1)C(F)(F)F` [Compound 229, N-[1-((6-fluoropyridin-3-yl)methyl)pyridin-2(1H)-ylidene]-2,2,2-trifluoroacetamide], the mortality at 20 ppm in the data set with diamondback moth (setting [6]) was 40%; in the data set with cotton aphid (setting [7]), 100%; in the data set on cotton aphid (in Cucumis sativus, 72 h), ≥ 80%. For the same molecule, the mortality at 100 ppm in the data set on diamondback moth (setting [6]) was 100%; in the data set on diamondback moth (in Brassica oleracea, 72 h), ≥ 80%; with cotton aphid (setting [7]), 100%; in the data set on cotton aphid (in Cucumis sativus, 72 h) it was ≥ 80%; in the data set with small brown planthopper [3] (in Oryza sativa, 72 h) it was ≥ 80%; in the data set with greenhouse whitefly, ≥ 80%. Moreover, the mortality at 100 ppm with western flower thrips (setting [9]) worked out at 60%. For the same molecule, the mortality at 500 ppm is 100% in the data set with diamondback moth (setting [6]); ≥ 80% in the data set with diamondback moth (in Brassica oleracea, 72 h); ≥ 80% with common cutworm (foliar, 72 h); 100% in the data set on cotton aphid (setting [7]); ≥ 80% with cotton aphid (in Cucumis sativus, 72 h); ≥ 80% with western flower thrips (72 h). Moreover, the mortality at 500 ppm in the data set on western flower thrips (setting [9]) is 100%. The “Insecticidal effects (mortality), common cutworm third-instar larvae” value in the data set on common cutworm (100 ppm) amounted to 30; with common cutworm (500 ppm), 100. For the same molecule, the mortality at 1.25 ppm in the data set with cotton aphid (setting [7]) worked out at 80%. Moreover, the mortality at 5 ppm in the data set with cotton aphid (setting [7]) and in the data set on small brown planthopper [3] (setting [8]) was 95% in each case. The mortality at 50 ppm in the data set with rice leaf bug is ≥ 80%. Also, in the data set on small brown planthopper [4], the mortality at 20 µg/seedling is ≥ 80%. Moreover, the mortality at 0.063 mg/seedling in the data set with small brown planthopper [4] (setting [8]) is 25%. Also, in the data set with small brown planthopper [4] (setting [8]), the mortality at 0.25 mg/seedling came out at 75%. Further, the mortality at 0.5 mg/seedling in the data set with small brown planthopper [4] (setting [8]) came to 100%. Besides, the mortality at 2 mg/seedling in the data set on small brown planthopper [4] (setting [8]) stood at 100%. For the same molecule, the pest or weed control at 0.005 mg/pot in the data set on small brown planthopper [5] (rice soil drenching, 0.005 mg/pot (Table 13), read-out: Small brown planthopper (rice soil drenching), effect) amounted to 30%. In addition, the pest or weed control at 0.01 mg/pot in the data set with small brown planthopper [5] (rice soil drenching, 0.01 mg/pot (Table 13), read-out: Small brown planthopper (rice soil drenching), effect) is 100%. Further, the pest or weed control at 0.05 mg/pot in the data set on small brown planthopper [5] (rice soil drenching, 0.05 mg/pot (Table 13), read-out: Small brown planthopper (rice soil drenching), effect) worked out at 100%. In the data set with small brown planthopper [5] (soil), the mortality at 0.05 mg/seedling was ≥ 80%. Further, in the data set on small brown planthopper [5] (setting [10]), the mortality at 0.005 mg/pot is 30%. Moreover, the mortality at 0.01 mg/pot in the data set on small brown planthopper [5] (setting [10]) was found to be 100%. Further, the mortality at 0.05 mg/pot in the data set with small brown planthopper [5] (setting [10]) came to 100%.
